Assay results as given in US9273043B2, “TRPV1 antagonists including dihydroxy substituent and uses thereof” (Purdue Pharma L.P., priority 2011, dated 2016).
In brackets after ≈: the same amount, converted by molar mass. Where two headings read alike, the source gives them in different places.

Key:
human TRPV1 [1] = target: T1, human TRPV1 (Homo sapiens (Human), UniProt Q8NER1); assay: Capsaicin-based assay, Protocol 2, TRPV1/CHO cells (hCAP-CHO), Fluo-4 FLIPR; type: cell-based; settings: 100 nM capsaicin, mean ± SEM
T1 sequence (Q8NER1 whole entry, looked up, the tested form may be a part): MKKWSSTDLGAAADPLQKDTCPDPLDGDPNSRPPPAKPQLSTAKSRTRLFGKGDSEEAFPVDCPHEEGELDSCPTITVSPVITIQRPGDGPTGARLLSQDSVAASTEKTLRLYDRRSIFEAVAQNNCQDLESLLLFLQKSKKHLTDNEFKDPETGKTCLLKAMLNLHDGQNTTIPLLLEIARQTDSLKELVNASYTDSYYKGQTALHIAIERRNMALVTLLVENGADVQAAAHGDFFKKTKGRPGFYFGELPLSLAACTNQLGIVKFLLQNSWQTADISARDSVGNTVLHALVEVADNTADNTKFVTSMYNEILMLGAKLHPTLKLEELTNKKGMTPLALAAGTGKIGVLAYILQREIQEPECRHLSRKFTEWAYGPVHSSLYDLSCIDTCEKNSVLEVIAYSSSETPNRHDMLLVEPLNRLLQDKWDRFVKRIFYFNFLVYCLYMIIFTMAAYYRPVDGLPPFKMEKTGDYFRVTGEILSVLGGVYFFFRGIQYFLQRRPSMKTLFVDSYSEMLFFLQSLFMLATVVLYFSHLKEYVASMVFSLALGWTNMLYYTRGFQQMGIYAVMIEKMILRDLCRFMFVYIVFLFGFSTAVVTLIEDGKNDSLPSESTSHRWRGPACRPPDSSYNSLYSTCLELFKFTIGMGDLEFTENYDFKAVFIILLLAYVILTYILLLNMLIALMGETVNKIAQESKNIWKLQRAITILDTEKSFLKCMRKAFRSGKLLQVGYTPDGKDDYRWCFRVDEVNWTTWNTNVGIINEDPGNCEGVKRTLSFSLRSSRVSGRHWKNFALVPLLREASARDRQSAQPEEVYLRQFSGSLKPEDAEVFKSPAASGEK
Text: The TRPV1/CHO cell line was generated as described below. […] The resulting PCR products were purified from agarose gels using Gel Band Purification Kit (GE Healthcare Bioscience) and were subcloned into pCR-Blunt vector (Invitrogen). The cloned cDNA was fully sequenced using a fluorescent dye-terminator reagent (BigDye Terminator ver3.1 Cycle Sequencing Kit, Applied Biosystems) and ABI Prism 3100 genetic analyzer (Applied Biosystems). The pCR-Blunt vector containing the hTRPV1 cDNA was subjected to restriction digestion with EcoR1. The restriction fragment was subcloned into expression vector pcDNA3.1(-) (Invitrogen) and named pcDNA3.1(-)-hVR1 plasmid. The sequence of the cDNA encoding TRPV1 is available at GenBank accession number AJ277028. […] The cells were transfected with the pcDNA3.1(-)-hVR1 plasmid using FuGENE6 (Roche) according to the manufacturer's protocol. 24 hr after transfection, neomycin-resistant cells were selected using 1 mg/mL G418 (Nacalai Tesque). […] The cells expressing hTRPV1 were cultured in the growth medium supplemented with 1 mg/mL G418. […] Capsaicin-based Assay: […] Subsequently, the cells were loaded by incubation in 0.1 mL of wash buffer containing Fluo-4 at 3 μM final concentration. After 1 hour, the cells were washed twice with 0.2 mL wash buffer and resuspended in 0.1 mL wash buffer. The plates were then transferred to a Fluorescence Imaging Plate Reader (Molecular Devices). Fluorescence intensity was monitored for 15 seconds to establish a baseline. […] The final concentration of the compound was adjusted to range from 100 μM to 1.5625 μM. […] Data were collected over the entire time course and analyzed using Excel and the curve-fitting formula GraphPad Prism.

human TRPV1 [2] = target: T1, human TRPV1; assay: pH-based assay, Protocol 2, TRPV1/CHO cells (hpH-CHO), Fura-2 Ca2+ influx; type: cell-based; settings: pH 5.0-5.1 (H2SO4), mean ± SEM
Protocol: For Protocol 2, a Chinese Hamster Ovary cell line (CHO) that has been engineered to constitutively express human recombinant TRPV1 was used (TRPV1/CHO cells). The TRPV1/CHO cell line was generated as described below.
TRPV1/CHO cells were seeded in the 96-well clear-bottom black-wall plate (Nunc) at densities of 1-2×10^4 cells/well and grown in 100 μL of culture medium (alpha-MEM supplemented with 10% FBS, 20 mM HEPES, 1 mg/mL geneticin and 1% antibiotic-antimycotic mixed stock solution) for 1-2 days before the experiment.
(1) Culture medium was removed using an 8-channel-pipette (Rainin, USA) from the 96-well plate and the wells were refilled with 100 μL of loading buffer (20 mM HEPES, 115 mM NaCl, 5.4 mM KCl, 0.8 mM MgCl2, 1.8 mM CaCl2, 13.8 mM D-glucose, 2.5 mM probenecid, pH 7.4) containing 5 μM Fura-2 AM (Dojin, Japan).
(2) The 96-well plate was incubated at 37° C. for 45 min.
(3) The loading buffer was removed from each well. The cells were subsequently washed twice with 150 μL of measuring buffer (20 mM HEPES, 115 mM NaCl, 5.4 mM KCl, 0.8 mM MgCl2, 5.0 mM CaCl2, 13.8 mM D-glucose, 0.1% BSA, pH 7.4) (no probenecid). The wells were then refilled with 80 μL of measuring buffer.
(4) After an incubation at 4° C. for 15 min, the 96-well plate was transferred to a model FDSS-3000 plate reader apparatus (Hamamatsu Photonics K.K., Japan).
(5) The Fura-2 fluorescent intensity was monitored at a wavelength of 340 nm and at 380 nm, respectively, at a rate of 0.5 Hz for a total of 240 seconds. After 16 time points (32 sec) of baseline detection, 20 μL of agonist solution was added to each well. The final volume was 100 μL/well.
(6) Fluorescence intensity ratio refers to the fluorescence intensity at 340 nm over the fluorescence intensity at 380 nm at a particular time point. The baseline was set as the average of the fluorescent intensity ratios for the first 16 time points before the addition of agonist solution. The maximum response was the highest fluorescent intensity ratio during the 60 time points following addition of agonist solution.
(7) Maximal signal ratios from each well were calculated as output data using the FDSS-3000 analysis program. Data were analyzed using Excel (Microsoft) and XLfit (idbs) software.
In an “agonist plate,” two different agonist solutions with different H2SO4 concentrations were used for the pH assay (see, e.g., FIG. 3A of U.S. Patent Application Publication No. US 2009/0170868 A1). For the first half of a 96-well plate one agonist solution was used; for the second half the other agonist solution was used. The agonist solutions were obtained by diluting sulfuric acid (1M H2SO4) with measuring buffer. The concentrations for the two agonist solutions were determined as described above in Section 2 of Protocol 2.
The sulfuric acid concentrations between the two agonist solutions differed by 0.5 mM. In the experiment described in Section 2 of Protocol 2, the sulfuric acid concentrations in the agonist solutions were determined to be 16 mM and 16.5 mM, respectively. After 1:4 dilution of the agonist solutions, the final sulfuric acid concentration was 3.2 mM and 3.3 mM, respectively. The resulting pH value for the pH assay was 5.0 to 5.1.
Test compounds were dissolved in DMSO to yield 1 mM stock solutions. The stock solutions were further diluted using DMSO in […] serial dilution steps with 6 points (1000, 250, 62.5, 15.625, 3.9062, and 0.977 μM). The thereby-obtained solutions were further diluted in measuring buffer (1:100) as 10× stock serial dilutions with a DMSO concentration of 1%. 10 μL of a 10× stock was added into each well of an “antagonist plate” (see step 3.3.(4) below). Thus, the final concentrations of antagonists was as follows: 0.977, 3.906, 15.63, 62.5, 250, and 1000 nM containing 0.1% DMSO (see, e.g., FIG. 3B of U.S. Patent Application Publication No. US 2009/0170868 A1).
Steps (1) and (2) of this Assay were the same as steps 2.2.(1) and 2.2.(2), respectively, of Protocol 2. […]

[3] = Aqueous solubility at pH 1.2 and pH 6.8; type: physicochemical; settings: aqueous solution
[4] = In vivo assay of body temperature increase (rectal body temperature); parameters: species or system rat; settings: rats, oral, 10 mL/kg of 1 mg/mL in 0.5% methylcellulose; greatest ΔTb versus vehicle control at 0.5, 1 or 2 hrs
Text: Hyperthermia or undesirable elevation in animal body temperature is known to be an undesirable side-effect accompanying the administration of certain TRPV1 antagonists (Gavva, “Body-temperature maintenance as the predominant function of the vanilloid receptor TRPV1,” Trends Pharmacol. Sci. 29(11):550-557 (2008)).
Test Animals: Selection of rats (Crl/SD rats, 7 weeks, male) was based on rectal body temperature measured during the morning of the day of dosing as described below. In addition, to minimize spontaneous, stress-induced increases in body temperature, rats were acclimated in advance to both the rectal measurement procedure and to being handled and dosed. All lodging and testing took place in animal care laboratories with constant room temperature and humidity. The rats were free to move and ingest food and water throughout. Each rat was coded with a colored line on the tail, housed in a separate cage, and permitted the normal range of movement. Immediately before each body temperature measurement, a rat was transferred to a measurement cage. To reduce stress which could influence its body temperature, each rat was covered with towels during the measurement. A thermistor probe was then carefully inserted into the rectum of each rat and left in place until the temperature reading on the digital display had stabilized; this value was recorded.
Assay: On the day before dosing, rectal body temperature was measured at 9:00, 10:00, 11:00, 12:30, 13:30, 14:30, and 15:30 o'clock to familiarize the rats with the measurement procedure prior to administration of the test or control treatments. The rats were also dosed by oral gavage without vehicle at 12:30 o'clock to acclimate and familiarize them with the handling and dosing procedure.
On the day of dosing, only rats with rectal body temperatures within the range of from 37.0° C. to 37.7° C. were selected for study. Rectal body temperatures were measured at 9:00, 10:00, and 11:00 o'clock. Rats were excluded from the study if either their rectal body temperature was over 37.9° C. at 10:00 o'clock or was outside the range of from 37.0° C. to 37.7° C. at 11:00 o'clock. The selected rats were divided into several groups based on their rectal body temperatures at 11:00 o'clock. Rectal body temperatures of the selected rats were measured again at 12:30 o'clock and any rat with a rectal body temperature of 38.0° C. or greater was also excluded from the study.
Following assignment to either a test or control group, a test compound or a control was administered to the rats. Each test compound was dissolved in a vehicle of 0.5% aqueous methylcellulose solution and the final concentration of the test compound was adjusted to 1 mg/mL. Each test compound was orally administered once at a dose of 10 mL/kg. The same volume of the control (vehicle only) was administered once to the control group. Rectal body temperatures were measured at the following time points: 0.5, 1, and 2 hrs after administration.
The body temperature increase (ΔTb) for each test compound was calculated by subtracting, at each time point, the average temperature of the control group from the average temperature of the group administered that test compound. The greatest ΔTb obtained for each test compound at any of the time points is shown in Table 11 below, along with the ΔTb of the control.

[5] = pH 1.2, simulated gastric fluid, read-out: aqueous solubility at pH 1.2
[6] = pH 6.8, aqueous buffer, read-out: aqueous solubility at pH 6.8

SMILES	IC50 (human TRPV1 [1])	IC50 (human TRPV1 [2])	solubility [3, 5]	solubility [3, 6]	ΔTb, body temperature increase [4]
C[C@@H]1CN(C(=O)Nc2nc3ccccc3s2)CCN1c1ncc([C@H](O)CO)cc1F [A122(b), (R)—N-(benzo[d]thiazol-2-yl)-4-(5-((S)-1,2-dihydroxyethyl)-3-fluoropyridin-2-yl)-3-methylpiperazine-1-carboxamide]	444 ± 79 nM	670 ± 94 nM	–	–	–
C[C@@H]1CN(C(=O)Nc2nc3cc(F)ccc3s2)CCN1c1ncc([C@@H](O)[C@@H](C)O)cc1F [B155(o), (R)-4-{5-[(1R,2R)-1,2-dihydroxypropyl]-3-fluoropyridin-2-yl}-N-(5-fluorobenzo[d]thiazol-2-yl)-3-methylpiperazine-1-carboxamide]	249 ± 34 nM	1230 ± 595 nM	–	–	–
C[C@@H](O)[C@H](O)c1cnc(N2CCN(C(=O)Nc3nc4ccccc4s3)C[C@@H]2C)c(F)c1 [B122(p), (S)—N-(benzo[d]thiazol-2-yl)-4-{5-[(1R,2R)-1,2-dihydroxypropyl]-3-fluoropyridin-2-yl}-3-methylpiperazine-1-carboxamide]	506 ± 155 nM	1020 nM	–	–	–
C[C@H]1CN(C(=O)Nc2nc3ccccc3s2)CCN1c1ncc([C@H](O)CO)cc1F [A122(c), (S)—N-(benzo[d]thiazol-2-yl)-4-{5-[(S)-1,2-dihydroxyethyl]-3-fluoropyridin-2-yl}-3-methylpiperazine-1-carboxamide]	178 ± 29 nM	553 ± 12 nM	–	–	–
C[C@H]1CN(c2ncc([C@@H](O)CO)cc2F)CCN1C(=O)Nc1nc2cc(F)ccc2s1 [A155(d), (S)-4-{5-[(R)-1,2-dihydroxyethyl]-3-fluoropyridin-2-yl}-N-(5-fluorobenzo[d]thiazol-2-yl)-2-methylpiperazine-1-carboxamide]	168 ± 42 nM	–	> 50 µM	4 µM (≈ 1.8 µg/mL)	0.1 °C
C[C@@H]1CN(c2ncc([C@@H](O)CO)cc2F)CCN1C(=O)Nc1nc2cc(F)ccc2s1 [A155(e), (R)-4-{5-[(R)-1,2-dihydroxyethyl]-3-fluoropyridin-2-yl}-N-(5-fluorobenzo[d]thiazol-2-yl)-2-methylpiperazine-1-carboxamide]	16.5 ± 4.2 nM	–	> 50 µM	5 µM (≈ 2.25 µg/mL)	0.1 °C
C[C@H](O)[C@@H](O)c1cnc(N2CCN(C(=O)Nc3nc4cc(F)ccc4s3)[C@@H](C)C2)c(F)c1 [B155(h), (S)-4-{5-[(1S,2S)-1,2-dihydroxypropyl]-3-fluoropyridin-2-yl}-N-(5-fluorobenzo[d]thiazol-2-yl)-2-methylpiperazine-1-carboxamide]	107 ± 20 nM	–	–	–	–
C[C@H](O)[C@@H](O)c1cnc(N2CCN(C(=O)Nc3nc4ccccc4s3)C[C@@H]2C)c(F)c1 [B122(k), (S)—N-(benzo[d]thiazol-2-yl)-4-{5-[(1S,2S)-1,2-dihydroxypropyl]-3-fluoropyridin-2-yl}-3-methylpiperazine-1-carboxamide]	502 ± 128 nM	2040 ± 245 nM	–	–	–
C[C@H](O)[C@@H](O)c1cnc(N2CCN(C(=O)Nc3nc4ccc(F)cc4s3)C[C@H]2C)c(F)c1 [B125(j), (R)-4-{5-[(1S,2S)-1,2-dihydroxypropyl]-3-fluoropyridin-2-yl}-N-(6-fluorobenzo[d]thiazol-2-yl)-3-methylpiperazine-1-carboxamide]	194 ± 49 nM	303 nM	–	–	–
C[C@@H]1CN(c2ncc([C@@H](O)CO)cc2F)CCN1C(=O)Nc1nc2ccc(Cl)cc2s1 [A123(e), (R)—N-(6-chlorobenzo[d]thiazol-2-yl)-4-(5-((R)-1,2-dihydroxyethyl)-3-fluoropyridin-2-yl)-2-methylpiperazine-1-carboxamide]	11.5 ± 1.4 nM	0.4 nM	–	–	–
